# Assay results published in patent publication US20200318189A1 (CHANG GUNG MEMORIAL HOSPITAL, LINKOU, priority 2017, published 2020).
# Key:
# [1] = tested on: HLA-A*0207 and HLA-B*1502 alleles
structure (smiles),measurement,setting,value
"Nc1nnc(-c2cccc(Cl)c2Cl)c(N)n1 [lamotrigine, Lamotrigine]",Sensitivity (%),HLA-B*1502 allele,26.92%
same,Specificity (%),HLA-B*1502 allele,90.33%
same,Sensitivity (%),HLA-A*0207 allele,42.31%
same,Specificity (%),HLA-A*0207 allele,83.18%
same,Sensitivity (%),[1],61.54%
same,Specificity (%),[1],73.51%
